Assay results from ChEMBL document CHEMBL5370648, “Rational Design of Bioorthogonally Activatable PROTAC for Tumor-Targeted Protein Degradation” (J Med Chem, 2023).
One block for each molecule: values may come before it. Active and inactive are the calls of the source. The rule behind the calls is not given here.

Experiments:
[1] = system: T47D; assay: Cytotoxicity against human T47D cells assessed as inhbition of cell growth at 20.0 uM measured after 48 hrs by CCK-8 method; assay type: functional, cell-based
[2] = Retention time of the compound by HPLC method; assay type: physicochemical
[3] = system: MDA-MB-231; assay: Cytotoxicity against human MDA-MB-231 cells assessed as inhbition of cell growth at 20.0 uM measured after 48 hrs by CCK-8 method; assay type: functional, cell-based
[4] = target: T1, von Hippel-Lindau disease tumor suppressor/Bromodomain-containing protein 4 (Homo sapiens, UniProt O60885+P40337); assay: PROTAC activity at BRD4/VHL E3 ligase in human T47D cells assessed as suppression of c-Myc expression incubated for 48 hrs by Western blot analysis; assay type: cell-based
[5] = system: MCF7; assay: Cytotoxicity against human MCF7 cells assessed as inhbition of cell growth measured after 48 hrs by CCK-8 method; assay type: functional, cell-based; details: MCF7, 48 h
[6] = target: T1, von Hippel-Lindau disease tumor suppressor/Bromodomain-containing protein 4; assay: In vivo PROTAC activity at BRD4/VHL E3 ligase in BALB/c nude mouse xenografted with human MCF7 cells assessed as reduction in BRD4 protein level in tumor 10 mg/kg measured after 48 hrs by Western blot analysis; assay type: functional, organism-based
[7] = target: T1, von Hippel-Lindau disease tumor suppressor/Bromodomain-containing protein 4; assay: PROTAC activity at BRD4/VHL E3 ligase in human T47D cells assessed as induction of degradation of BRD4 at upto 1000 nM incubated for 48 hrs in presence of MG132 by immunofluorescence staining assay; assay type: cell-based
[8] = target: T1, von Hippel-Lindau disease tumor suppressor/Bromodomain-containing protein 4; assay: PROTAC activity at BRD4/VHL E3 ligase in human MCF7 cells assessed as suppression of c-Myc expression incubated for 48 hrs by Western blot analysis; assay type: cell-based
[9] = system: MCF7; assay: Antitumor activity against human MCF7 cells xenografted in BALB/c nude mouse assessed as tumor growth inhibition at 10 mg/kg measured after 16 days; assay type: functional, organism-based; details: time 16.0 day
[10] = target: T1, von Hippel-Lindau disease tumor suppressor/Bromodomain-containing protein 4; assay: PROTAC activity at BRD4/VHL E3 ligase in human MCF7 cells assessed as activation of caspase-3 expression incubated for 48 hrs by Western blot analysis; assay type: cell-based
[11] = target: T1, von Hippel-Lindau disease tumor suppressor/Bromodomain-containing protein 4; assay: PROTAC activity at BRD4/VHL E3 ligase in human MCF7 cells assessed as decrease in BRD4 expression incubated for 48 hrs by Western blot analysis; assay type: cell-based
[12] = target: T1, von Hippel-Lindau disease tumor suppressor/Bromodomain-containing protein 4; assay: PROTAC activity at BRD4/VHL E3 ligase in human T47D cells assessed as degradation of BRD4 expression incubated for 48 hrs by Western blot analysis; assay type: cell-based
[13] = system: MCF7; assay: Antitumor activity against human MCF7 cells xenografted in BALB/c nude mouse assessed as apoptosis at 10 mg/kg measured after 48 hrs by Western blot analysis; assay type: functional, organism-based
[14] = target: T1, von Hippel-Lindau disease tumor suppressor/Bromodomain-containing protein 4; assay: PROTAC activity at BRD4/VHL E3 ligase in human MDA-MB-231 cells assessed as activation of caspase-3 expression incubated for 48 hrs by Western blot analysis; assay type: cell-based
[15] = target: T1, von Hippel-Lindau disease tumor suppressor/Bromodomain-containing protein 4; assay: PROTAC activity at BRD4/VHL E3 ligase in human T47D cells assessed as induction of degradation of BRD4 at upto 1000 nM incubated for 48 hrs in presence of MLN4924 by immunofluorescence staining assay; assay type: cell-based
[16] = system: MCF7; assay: Antitumor activity against human MCF7 cells xenografted in BALB/c nude mouse assessed as fold increase in tumor volume at 10 mg/kg measured at day 23 post injection; assay type: functional; details: time 23 day
[17] = target: T1, von Hippel-Lindau disease tumor suppressor/Bromodomain-containing protein 4; assay: PROTAC activity at BRD4/VHL E3 ligase in human MDA-MB-231 cells assessed as induction of degradation of intracellular BRD4 at 200 nM incubated for 48 hrs by immunofluorescence staining assay; assay type: cell-based
[18] = target: T1, von Hippel-Lindau disease tumor suppressor/Bromodomain-containing protein 4; assay: PROTAC activity at BRD4/VHL E3 ligase in human MCF7 cells assessed as induction of degradation of intracellular BRD4 at 200 nM incubated for 48 hrs by immunofluorescence staining assay; assay type: cell-based
[19] = target: T1, von Hippel-Lindau disease tumor suppressor/Bromodomain-containing protein 4; assay: PROTAC activity at BRD4/VHL E3 ligase in human T47D cells assessed as activation of caspase-3 expression incubated for 48 hrs by Western blot analysis; assay type: cell-based
[20] = system: T47D; assay: Cytotoxicity against human T47D cells assessed as inhbition of cell growth measured after 48 hrs by CCK-8 method; assay type: functional, cell-based
[21] = target: T1, von Hippel-Lindau disease tumor suppressor/Bromodomain-containing protein 4; assay: PROTAC activity at BRD4/VHL E3 ligase in human T47D cells assessed as induction of degradation of intracellular BRD4 at 200 nM incubated for 48 hrs by immunofluorescence staining assay; assay type: cell-based
[22] = Toxicity in BALB/c nude mouse assessed as animal death at 10 mg/kg measured after 16 days; assay type: organism-based; details: in vivo, 384 h, time 16 day
[23] = target: T1, von Hippel-Lindau disease tumor suppressor/Bromodomain-containing protein 4; assay: PROTAC activity at BRD4/VHL E3 ligase in human MCF7 cells assessed as degradation of BRD4 expression incubated for 48 hrs by Western blot analysis; assay type: cell-based
[24] = system: MDA-MB-231; assay: Cytotoxicity against human MDA-MB-231 cells assessed as inhbition of cell growth measured after 48 hrs by CCK-8 method; assay type: functional, cell-based; details: MDA-MB-231, 48 h
[25] = target: T1, von Hippel-Lindau disease tumor suppressor/Bromodomain-containing protein 4; assay: PROTAC activity at BRD4/VHL E3 ligase in human MDA-MB-231 cells assessed as decrease in BRD4 expression incubated for 48 hrs by Western blot analysis; assay type: cell-based
[26] = target: T1, von Hippel-Lindau disease tumor suppressor/Bromodomain-containing protein 4; assay: PROTAC activity at BRD4/VHL E3 ligase in human MDA-MB-231 cells assessed as degradation of BRD4 expression incubated for 48 hrs by Western blot analysis; assay type: cell-based
[27] = system: MCF7; assay: Antitumor activity against human MCF7 cells xenografted in BALB/c nude mouse model assessed as inhibition of tumor cell proliferation by measuring reduction in Ki67 staining at 10 mg/kg administered for 16 days by immunohistochemical analysis; assay type: functional, organism-based; details: time 16.0 day
[28] = target: T1, von Hippel-Lindau disease tumor suppressor/Bromodomain-containing protein 4; assay: PROTAC activity at BRD4/VHL E3 ligase in human MDA-MB-231 cells assessed as suppression of c-Myc expression incubated for 48 hrs by Western blot analysis; assay type: cell-based
[29] = target: T1, von Hippel-Lindau disease tumor suppressor/Bromodomain-containing protein 4; assay: PROTAC activity at BRD4/VHL E3 ligase in human T47D cells assessed as decrease in BRD4 expression incubated for 48 hrs by Western blot analysis; assay type: cell-based

T1 sequence (P40337 whole entry, looked up, other chains not shown): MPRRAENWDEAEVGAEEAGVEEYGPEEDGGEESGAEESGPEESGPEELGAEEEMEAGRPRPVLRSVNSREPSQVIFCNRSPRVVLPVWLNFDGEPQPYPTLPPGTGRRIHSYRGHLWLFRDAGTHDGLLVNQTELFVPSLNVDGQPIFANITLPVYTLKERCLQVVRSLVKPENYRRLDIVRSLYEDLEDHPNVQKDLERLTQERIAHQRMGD

Retention_time [2]: 19.3 min
SMILES: Cc1ncsc1-c1ccc([C@H](C)NC(=O)[C@@H]2C[C@@H](OC(=O)OC3/C=C/CCCCC3)CN2C(=O)[C@@H](NC(=O)COCCOCCOCCNC(=O)CC2N=C(c3ccc(Cl)cc3)c3c(sc(C)c3C)-n3c(C)nnc32)C(C)(C)C)cc1 (stereo not given in full)
Activity [1]: inactive
Activity [3]: inactive

SMILES: Cc1ncsc1-c1ccc([C@H](C)NC(=O)[C@@H]2C[C@@H](O)CN2C(=O)[C@@H](NC(=O)COCCOCCOCCNC(=O)CC2N=C(c3ccc(Cl)cc3)c3c(sc(C)c3C)-n3c(C)nnc32)C(C)(C)C)cc1 (stereo not given in full)
Activity [4]: Active
IC50 [5]: 183 nM
Activity [6]: Active
Activity [7]: inactive
Activity [8]: Active
Activity [9]: Active
Activity [10]: Active
EC50 [11]: 50.3 nM
Activity [12]: Active
Activity [13]: Active
Activity [14]: Active
Activity [15]: inactive
fold change (FC) [16]: 1.58
Activity [17]: Active
Activity [18]: Active
Activity [19]: Active
IC50 [20]: 253 nM
Activity [21]: Active
Activity [22]: Toxic
Activity [23]: Active
Retention_time [2]: 18.96 min
IC50 [24]: 225 nM
EC50 [25]: 3.96 nM
Activity [26]: Active
Activity [27]: Active
Activity [28]: Active
EC50 [29]: 56.6 nM
